This is an account of results in ChEMBL document CHEMBL5380832, “Serine-/Cysteine-Based sp2-Iminoglycolipids as Novel TLR4 Agonists: Evaluation of Their Adjuvancy and Immunotherapeutic Properties in a Murine Model of Asthma” (J Med Chem, 2023).

Activity calls are given as the source filed them. The rule behind the calls is not given here.

The test system of the first assay is BMDC. As to the kind of experiment: Induction of wild type C57BL/6JNarl mouse BMDC cells maturation assessed as increase in IL-12p40 expression level at 10 to 50 uM by ELISA. In kind it is functional, cell-based. The settings on record: dose 10-50 µM. Background: In an ELISA, binding on a coated surface is turned into a signal by an enzyme label.
As for `CCCCCCCCCCCCNC(=O)[C@H](CO[C@@H]1[C@H](O)[C@@H](O)[C@H](O)[C@H]2COC(=O)N21)NC(=O)CCCCCCCCCCC`, the Activity entry was “Dose-Dependent Effect”.

For another assay, the system named is BMDC. The assay is described as follows: Induction of MyD88 knockout C57BL/6JNarl mouse BMDC cells maturation assessed as increase in IL-12p40 expression level at 10 to 50 uM by ELISA. In kind it is functional, cell-based. The settings on record: dose 10-50 µM.
With `CCCCCCCCCCCCNC(=O)[C@H](CO[C@@H]1[C@H](O)[C@@H](O)[C@H](O)[C@H]2COC(=O)N21)NC(=O)CCCCCCCCCCC`, the result was inactive.

For the next assay, the system named is PBMC. As to the kind of experiment: Immunostimulatory activity in human PBMC cells assessed as increase in IFN-gamma expression level at 10 to 25 uM by ELISA. The assay is classed as functional, cell-based. The note with it: dose 10-25 µM.
On to `CCCCCCCCCCCCNC(=O)[C@H](CO[C@@H]1[C@H](O)[C@@H](O)[C@H](O)[C@H]2COC(=O)N21)NC(=O)CCCCCCCCCCC`, for which the outcome was Active.

Another assay has as its system PBMC. As to the kind of experiment: Immunostimulatory activity in human PBMC cells assessed as increase in IL-6 expression level at 10 to 25 uM by ELISA. In kind it is functional, cell-based. The note with it: dose 10-25 µM.
Regarding `CCCCCCCCCCCCNC(=O)[C@H](CO[C@@H]1[C@H](O)[C@@H](O)[C@H](O)[C@H]2COC(=O)N21)NC(=O)CCCCCCCCCCC`, the outcome was Active.

Another assay relates to Mus musculus. As to the kind of experiment: Immunostimulatory activity in C57BL/6JNarl mouse assessed as increase in IFN-gamma expression level in serum at 20 microg/g, ip and measured after 2 hrs by ELISA. The note with it: dose 20.0 µg/g. The assay is classed as functional, organism-based.
On to `CCCCCCCCCCCCNC(=O)[C@H](CO[C@@H]1[C@H](O)[C@@H](O)[C@H](O)[C@H]2COC(=O)N21)NC(=O)CCCCCCCCCCC`, for which the outcome was Active.

The test system of a further assay is Mus musculus. The assay is described as follows: Immunostimulatory activity in C57BL/6JNarl mouse assessed as increase in IL-4 expression level in serum at 20 microg/g, ip and measured after 2 hrs by ELISA. In kind it is functional, organism-based. The settings on record: dose 20.0 µg/g.
With `CCCCCCCCCCCCNC(=O)[C@H](CO[C@@H]1[C@H](O)[C@@H](O)[C@H](O)[C@H]2COC(=O)N21)NC(=O)CCCCCCCCCCC`, the outcome was Active.

Another assay deals with Mus musculus. The assay is described as follows: Immunostimulatory activity in C57BL/6JNarl mouse assessed as increase in IFN-gamma expression level in serum at 20 microg/g, ip and measured after 18 hrs by ELISA. The assay is classed as functional, organism-based. The settings on record: dose 20.0 µg/g.
Regarding `CCCCCCCCCCCCNC(=O)[C@H](CO[C@@H]1[C@H](O)[C@@H](O)[C@H](O)[C@H]2COC(=O)N21)NC(=O)CCCCCCCCCCC`, the outcome was Active.

Another assay relates to Mus musculus. As to the kind of experiment: Immunostimulatory activity in C57BL/6JNarl mouse assessed as increase in IL-4 expression level in serum at 20 microg/g, ip and measured after 18 hrs by ELISA. The assay is classed as functional, organism-based. The settings on record: dose 20.0 µg/g.
As to `CCCCCCCCCCCCNC(=O)[C@H](CO[C@@H]1[C@H](O)[C@@H](O)[C@H](O)[C@H]2COC(=O)N21)NC(=O)CCCCCCCCCCC`, the result was Active.

The test system of the next assay is Mus musculus. As to the kind of experiment: Immunostimulatory activity in C57BL/6JNarl mouse assessed as increase in Cd86 mRNA expression level in spleen at 20 microg/g, ip by RT-qPCR analysis. The assay is classed as functional, organism-based. The note with it: dose 20.0 µg/g.
As for `CCCCCCCCCCCCNC(=O)[C@H](CO[C@@H]1[C@H](O)[C@@H](O)[C@H](O)[C@H]2COC(=O)N21)NC(=O)CCCCCCCCCCC`, the result was Active.

For a further assay, the system named is Mus musculus. The assay is described as follows: Immunostimulatory activity in C57BL/6JNarl mouse assessed as increase in IL-4 mRNA expression level in spleen at 20 microg/g, ip by RT-qPCR analysis. The assay is classed as functional, organism-based. The note with it: dose 20.0 µg/g.
For `CCCCCCCCCCCCNC(=O)[C@H](CO[C@@H]1[C@H](O)[C@@H](O)[C@H](O)[C@H]2COC(=O)N21)NC(=O)CCCCCCCCCCC`, the result was Active.

The next assay relates to Mus musculus. As to the kind of experiment: Immuno-adjuvant activity in C57BL/6JNarl mouse […] with OT-1 mouse splenocytes assessed as fold increase in OVA-specific CD8+ T cell proliferation at 20 microg/g, ip in presence of OVA (257 to 264 residues) peptide treatment by flow cytometry relative to control. The assay is classed as functional. The settings on record: dose 20 µg/g. For orientation: In flow cytometry, cells or beads pass a laser one at a time.
Consider `CCCCCCCCCCCCNC(=O)[C@H](CO[C@@H]1[C@H](O)[C@@H](O)[C@H](O)[C@H]2COC(=O)N21)NC(=O)CCCCCCCCCCC`, for which the “fold change (FC)” value was 5.

The test system of another assay is Mus musculus. The assay is described as follows: Immunomodulatory activity in OVA-sensitized asthmatic BALB/c mouse model assessed as inhibition of methacholine induced airway hyperreactivity by measuring pulmonary resistance at 20 microg/g, ip administered after day 14 OVA sensitization. Details: scale not given: the % may be the effect or the level left. The note with it: dose 20 µg/g. In kind it is functional.
In the case of `CCCCCCCCCCCCNC(=O)[C@H](CO[C@@H]1[C@H](O)[C@@H](O)[C@H](O)[C@H]2COC(=O)N21)NC(=O)CCCCCCCCCCC`, the Activity stood at 50%.

The next assay concerns Mus musculus. The assay is described as follows: Immunomodulatory activity in OVA-sensitized asthmatic BALB/c mouse model assessed as reduction in IL-4 expression level in BALF at 20 microg/g, ip administered after day 14 OVA sensitization by ELISA. In kind it is functional, organism-based. The note with it: dose 20.0 µg/g.
For `CCCCCCCCCCCCNC(=O)[C@H](CO[C@@H]1[C@H](O)[C@@H](O)[C@H](O)[C@H]2COC(=O)N21)NC(=O)CCCCCCCCCCC`, the outcome was Active.

A further assay relates to Mus musculus. As to the kind of experiment: Immunomodulatory activity in OVA-sensitized asthmatic BALB/c mouse model assessed as reduction in IL-4 expression level in lung at 20 microg/g, ip administered after day 14 OVA sensitization by ELISA. The assay is classed as functional, organism-based. The note with it: dose 20.0 µg/g.
In the case of `CCCCCCCCCCCCNC(=O)[C@H](CO[C@@H]1[C@H](O)[C@@H](O)[C@H](O)[C@H]2COC(=O)N21)NC(=O)CCCCCCCCCCC`, the outcome was Active.

The subject of the next assay is Mus musculus. The assay is described as follows: Anti-inflammatory activity in OVA-sensitized asthmatic BALB/c mouse model assessed as reduction in IL-13 expression level in BALF at 20 microg/g, ip administered after day 14 OVA sensitization by ELISA. The assay is classed as functional, organism-based. The settings on record: dose 20.0 µg/g.
For the molecule `CCCCCCCCCCCCNC(=O)[C@H](CO[C@@H]1[C@H](O)[C@@H](O)[C@H](O)[C@H]2COC(=O)N21)NC(=O)CCCCCCCCCCC`, the outcome was Active.

For another assay, the system named is Mus musculus. The assay is described as follows: Anti-inflammatory activity in OVA-sensitized asthmatic BALB/c mouse model assessed as reduction in IL-13 expression level in lung at 20 microg/g, ip administered after day 14 OVA sensitization by ELISA. The assay is classed as functional, organism-based. The settings on record: dose 20.0 µg/g.
In the case of `CCCCCCCCCCCCNC(=O)[C@H](CO[C@@H]1[C@H](O)[C@@H](O)[C@H](O)[C@H]2COC(=O)N21)NC(=O)CCCCCCCCCCC`, the result was Active.
